Data published in publication PMC9304322, “Targeting retinoic acid receptor alpha-corepressor interaction activates chaperone-mediated autophagy and protects against retinal degeneration” (Nature Communications, 2022).
Where “and” joins values, the source holds several entries; their conditions need not be identical. Equal entries are not always repeated. Where two headings read alike, the source gives them in different places.

Columns and labels:
[1] = Pharmacokinetic analysis, plasma and brain;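 on Fig. 3b level, MEAN: brain concentration in ng/g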;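 on Fig. 3b level, single animals 1-3: brain concentration in ng/g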; type: in vivo, ICR (CD-1) male mice; set-up: Fig. 3a level, single animals 1-3 / Fig. 3a level, MEAN / Fig. 3b level, single animals 1-3 / Fig. 3b level, MEAN: unit not given here; conditions: for Kp at 0.083 h / Kp at 0.25 h / Kp at 0.5 h / Kp at 1 h / Kp at 2 h / Kp at 4 h / Kp at 8 h / Kp at 24 h / half-life: male, ICR (CD-1), mouse; for half-life: mice
Procedure: ICR (CD-1) male mice were fasted at least three hours and water was available ad libitum before the study. Animals were housed in a controlled environment, target conditions: temperature 18 to 29 °C, relative humidity 30 to 70%. Temperature and relative humidity was monitored daily. An electronic time-controlled lighting system was used to provide a 12 h light/12 h dark cycle. 3 mice for each indicated time point were administered 30 mg/Kg CA39 or CA77 by oral gavage or 1 mg/Kg CA39 or CA77 by intravenous injection using 30% PEG-400, 65% D5W (5% dextrose in water), 5% Tween-80 vehicle. Mice were sacrificed, and brain samples were harvested at […], 0.25 h, 0.5 h, 1 h, 2 h, 4 h, 8 h, 24 h, and analyzed for CA39 or CA77 levels using LC-MS/MS. Pharmacokinetics parameters were calculated using Phoenix WinNonlin 6.3. Experiments performed at SIMM-SERVIER joint Biopharmacy Laboratory.

[2] = system: NIH3T3 cells control (empty vector) or knock-down (KD) for N-CoR1; assay: CMA activity in NIH3T3 control or knock-down for N-CoR1; type: cell-based, mouse; set-up: CMA activity: unit not given here; conditions: for CMA activity: Fig. 2h, individual replicate values
Procedure: NIH3T3 mouse fibroblasts (CRL-1658), CaCo2 cells human colorectal adenocarcinoma (HTB-3), and the N2a neuroblastoma cell line (CCL-131) were obtained from the American Type Culture Collection and were validated by genomic PCR. Primary human fibroblasts (GM01651) were from Coriell Repository. Cells were cultured to full confluence in a 37 °C incubator with 5% CO2 in complete Dulbecco’s modified Eagle’s medium (DMEM, Sigma #D5030) supplemented with 10% heat-inactivated newborn calf serum (HyClone #SH30401.02HI), 1% penicillin/streptomycin/fungizone (Invitrogen, #10072322). All the cell lines were tested for mycoplasma contamination using DNA staining protocol with Hoechst 33258 dye and none of them was found positive. Knock-down of Ncor1 was done using lentiviral mediated shRNA (SHCLNG-NM_011308) from the Sigma Mission library following standard procedures. The efficiency of knock-down was tested by immunoblot. Cell viability was measured using the CellTiter-Blue kit (Promega, #G9241) 24 h after the addition of the different stressors according to the manufacturer’s instructions. All cell lines were validated by genomic PCR.
Cells were transduced with lentivirus carrying the KFERQ-PS-Dendra reporter as before. Cells were photoactivated by exposure to a 3.5 mA (current constant) light emitting diode (LED: Norlux, 405 nm) for 3 min and then plated in glass-bottom 96 well plates. At the desired times, cells were fixed with 4% PFA and imaged using high-content microscopy (Operetta system, Perkin Elmer). Images were quantified using the manufacturer’s software in a minimum of 1,200 cells in 9 independent fields per well. […] This was particularly important in the case of primary human cells where the efficiency of transduction was ~65%. To avoid confounding effects for drug-induced changes in cell volume or adherence to the plate that could bring a fraction of the cells per field outside of focus, we set a threshold to count only […] that have at least 1/10 of the average number of […] detected in the untreated wells for each cell type (3–4 puncta/cell in the case of NIH3T3 and N2a cells and 5 puncta/cell in primary human fibroblasts).

[3] = Pharmacokinetic analysis, plasma and brain;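 on Fig. 3b level, MEAN: brain concentration in ng/g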;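 on Fig. 3b level, single animals 1-3: brain concentration in ng/g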; type: in vivo, ICR (CD-1) male mice; set-up: Fig. 3a level, single animals 1-3 / Fig. 3b level, single animals 1-3: unit not given here

In the case of Clc1ccc2c(c1)OCC(c1ccc(-c3ccccc3)cc1)=N2 [CA39], the “Fig. 3b level, MEAN” value ([1]; PO, Time 24 h) is reported as 118.958, the “Fig. 3b level, single animals 1-3” value ([1]; PO, Time 24 h) is reported as 104.574 and 178.19 and 74.11 and the “B/P, Brian/Plasma” value ([1]; i.v., Time 0.083 h, individual animals) is reported as 1.236 and 1.666. The “B/P, Brian/Plasma” value ([1]; i.v., Time 0.25 h, individual animals) was 1.735 and 1.969, the “B/P, Brian/Plasma” value ([1]; i.v., Time 0.5 h, individual animals) was 2.565 and 2.537 and the “B/P, Brian/Plasma” value ([1]; i.v., Time 1 h, individual animals) was 6.667 and 3.6501. For the same compound, the “B/P, Brian/Plasma” value ([1]; i.v., Time 2 h, individual animals) was 3.096 and 5.978, the “B/P, Brian/Plasma” value ([1]; i.v., Time 4 h, individual animals) was 10.8283 and 14.3725 and the “B/P, Brian/Plasma” value ([1]; i.v., Time 8 h, individual animals) was 13.2396 and 14.9605. The “B/P, Brian/Plasma” value ([1]; i.v., Time 24 h, individual animals) was 13.9974, the Kp at 0.083 h ([1]; brain, iv, 1 mg/Kg, i.v., Time 0.083 h, individual animals, read-out: B/P, Brian/Plasma) was 1.37 and the Kp at 0.083 h ([1]; brain, iv, 1 mg/Kg, i.v., Time 0.083 h, mean, read-out: B/P, Brian/Plasma, Mean) was 1.42. It also gave a Kp at 0.25 h ([1]; brain, iv, 1 mg/Kg, i.v., Time 0.25 h, individual animals, read-out: B/P, Brian/Plasma) of 2.01, a Kp at 0.25 h ([1]; brain, iv, 1 mg/Kg, i.v., Time 0.25 h, mean, read-out: B/P, Brian/Plasma, Mean) of 1.9 and a Kp at 0.5 h ([1]; brain, iv, 1 mg/Kg, i.v., Time 0.5 h, individual animals, read-out: B/P, Brian/Plasma) of 2.58. It also gave a Kp at 0.5 h ([1]; brain, iv, 1 mg/Kg, i.v., Time 0.5 h, mean, read-out: B/P, Brian/Plasma, Mean) of 2.56, a Kp at 1 h ([1]; brain, iv, 1 mg/Kg, i.v., Time 1 h, individual animals, read-out: B/P, Brian/Plasma) of 4.58 and a Kp at 1 h ([1]; brain, iv, 1 mg/Kg, i.v., Time 1 h, mean, read-out: B/P, Brian/Plasma, Mean) of 4.11. The Kp at 2 h ([1]; brain, iv, 1 mg/Kg, i.v., Time 2 h, individual animals, read-out: B/P, Brian/Plasma) was 5.36, the Kp at 2 h ([1]; brain, iv, 1 mg/Kg, i.v., Time 2 h, mean, read-out: B/P, Brian/Plasma, Mean) was 4.81 and the Kp at 4 h ([1]; brain, iv, 1 mg/Kg, i.v., Time 4 h, individual animals, read-out: B/P, Brian/Plasma) was 14.8. The Kp at 4 h ([1]; brain, iv, 1 mg/Kg, i.v., Time 4 h, mean, read-out: B/P, Brian/Plasma, Mean) was 13.3, the Kp at 8 h ([1]; brain, iv, 1 mg/Kg, i.v., Time 8 h, individual animals, read-out: B/P, Brian/Plasma) was 11.7 and the Kp at 8 h ([1]; brain, iv, 1 mg/Kg, i.v., Time 8 h, mean, read-out: B/P, Brian/Plasma, Mean) was 13.3. For the same compound, the Kp at 24 h ([1]; brain, iv, 1 mg/Kg, i.v., Time 24 h, individual animals, read-out: B/P, Brian/Plasma) was 14.7, the Kp at 24 h ([1]; brain, iv, 1 mg/Kg, i.v., Time 24 h, mean, read-out: B/P, Brian/Plasma, Mean) was 14.2 and the Kp at 0.25 h ([1]; brain, po, 30 mg/Kg, P.O., Time 0.25 h, individual animals, read-out: B/P, Brian/Plasma) was 4.01. For the same compound, the Kp at 0.25 h ([1]; brain, po, 30 mg/Kg, P.O., Time 0.25 h, mean, read-out: B/P, Brian/Plasma, Mean) was 4.31, the Kp at 0.5 h ([1]; brain, po, 30 mg/Kg, P.O., Time 0.5 h, individual animals, read-out: B/P, Brian/Plasma) was 1.82 and the Kp at 0.5 h ([1]; brain, po, 30 mg/Kg, P.O., Time 0.5 h, mean, read-out: B/P, Brian/Plasma, Mean) was 1.72. The Kp at 1 h ([1]; brain, po, 30 mg/Kg, P.O., Time 1 h, individual animals, read-out: B/P, Brian/Plasma) was 5.37, the Kp at 1 h ([1]; brain, po, 30 mg/Kg, P.O., Time 1 h, mean, read-out: B/P, Brian/Plasma, Mean) was 5.55 and the Kp at 2 h ([1]; brain, po, 30 mg/Kg, P.O., Time 2 h, individual animals, read-out: B/P, Brian/Plasma) was 7.84. For the same compound, the Kp at 2 h ([1]; brain, po, 30 mg/Kg, P.O., Time 2 h, mean, read-out: B/P, Brian/Plasma, Mean) was 7.48, the Kp at 4 h ([1]; brain, po, 30 mg/Kg, P.O., Time 4 h, mean, read-out: B/P, Brian/Plasma, Mean) was 9.49 and the Kp at 8 h ([1]; brain, po, 30 mg/Kg, P.O., Time 8 h, individual animals, read-out: B/P, Brian/Plasma) was 16.6. For the same compound, the Kp at 8 h ([1]; brain, po, 30 mg/Kg, P.O., Time 8 h, mean, read-out: B/P, Brian/Plasma, Mean) was 13.6, the Kp at 24 h ([1]; brain, po, 30 mg/Kg, P.O., Time 24 h, individual animals, read-out: B/P, Brian/Plasma) was 11.6 and the Kp at 24 h ([1]; brain, po, 30 mg/Kg, P.O., Time 24 h, mean, read-out: B/P, Brian/Plasma, Mean) was 17.9. For the same compound, the half-life ([1]; brain, IV 1 mg/kg, read-out: Half-life in brain (converted)) was 8 h, the half-life ([1]; brain, PO 30 mg/kg, read-out: Half-life in brain (converted)) was 10 h and the half-life ([1]; plasma, IV 1 mg/kg, read-out: Half-life in plasma (converted)) was 8.2 h. The half-life ([1]; plasma, PO 30 mg/kg, read-out: Half-life in plasma (converted)) was 7.5 h, the “activating effect on CMA upon knock-down of NCOR1” value ([2]; 20μM for 24 h) was “completely ablated” and the CMA activity ([2]; Ctr cells) was 28.3 and 30.0 and 31.5. For the same compound, the CMA activity ([2]; NCOR(-) (NCoR1 KD) cells) was 3.7 and 5.0 and 5.1, the “Fig. 3a level, single animals 1-3” value ([3]; IV, Time 0.083 h) was 52.0116 and 70.6516 and 60.713 and the “Fig. 3b level, single animals 1-3” value ([3]; IV, Time 0.083 h) was 52.0116 and 70.6516 and 60.713. The predicted brain concentration ([3]; intraperitoneal 30 mg/kg bw, converted from Cmax or AUC (CA39: AUC and extended half-life)) was 10 to 20 µM.
